Legend:
[1] = tested on: mice treated with Aβ25-35; experiment: Spontaneous alternation in the Y-maze, Aβ25-35 amyloid toxicity model; assay type: in vivo; conditions: for active dose (neuroprotective effects): non-transgenic AD model, ICV Aβ25-35 in mice
Method: Male mice (RjOrl:SWISS) from Janvier laboratories (Le Genest-Saint-Isle, France), aged 7-9 weeks and weighing 32±2 g were used for this study. The animals were grouped in plastic cages with free access to the […] and water, in a regulated environment (23±1° C., humidity 40-60%, 12 h light/dark cycle).
The compounds were solubilized in physiological saline solution (0.9% NaCl) or in dimethylsulfoxide (DMSO) 10% in the saline solution and administered via intraperitoneal route (IP) in a volume of 100 μl per 20 g body weight.
The amyloid-β[25-35] peptide (Aβ25-35) and control peptide (Sc.Aβ) were obtained from Genepep (Saint-Jean-de-Vedas, France). They were solubilized in injectable distilled water at a concentration of 3 mg/ml and stored at −20° C. Before injection, the peptides were incubated at 37° C. for 4 days, which enabled the Aβ25-35 peptide but not the Sc.Aβ, to form oligomers. They were administered via intracerebroventricular route (ICV). The animals were anesthetized by inhaling 2.5% isoflurane (TEM) and were given 3 μl of peptide solution via direct ICV route (Haley and McCormick's method). For injection a 10 μl Hamilton micro-syringe was used at a flow rate of 1 μl/min.
(§1) The animals were tested for spontaneous alternation performance in a Y-maze, an index of spatial working memory. The Y-maze was in grey PVC. Each arm was 40 cm long, 13 cm high, 3 cm wide at the base and 10 cm wide in the upper part, and converging at an equal angle. Each mouse was placed at one end of an arm and was able to move freely through the maze during an 8-min session. The series of arm entries, including any returns in the same arm were visually analysed. Alternation is defined as being consecutive entries in three different arms. The maximum number of alternations is therefore the total number of arm entries less two, and alternation percentage is calculated as (actual alternations/maximum possible alternations)×100. The parameters comprise the alternation percentage (memory index) and the total number of arm entries (exploratory index).
[…] After one week, the animals were tested for behavioural performance, then sacrificed and the brain dissected for biochemical analyses.
On Day 7, after the injections of 3b and amyloid peptide, the mice were tested for their ability to alternate in the Y-maze, a spatial working memory test. […] The mice were then tested for passive avoidance response, a long-term non-spatial memory test. with training on Day 8 and recall on Day 9 after the injections (FIG. 1c).

[2] = tested on: mice treated with peptide Aβ25-35; experiment: In vivo screening of derivatives as neuroprotectors (spontaneous alternation, passive avoidance, ROS level), Aβ25-35 model
Method: FIG. 7: Screening of phosphinolactones as neuroprotectors in mice treated with peptide Aβ25-35: (a) spontaneous alternation; (b) passive avoidance step-through latency; (c) Levels of reactive oxygen species in hippocampus. The mice were given compound 3b (0.3, 0.7 mg/kg IP) or a dose of each compound (0.3 mg/kg IP) 20 min before I′Aβ25-35 or the control peptide Sc.Aβ (9 nmol ICV). The animals were tested in the Y-maze on Day 7 after the ICV injections and for passive avoidance on Days 8-9, and then sacrificed. In each graph at (a-c), the 50% protection level compared with the deficit induced by Aβ25-35 is plotted as a dotted line. It is to be noted that at (a), the column represents the median and the error bars represent the deviations 25%-75% (=asymmetric deviations). n=12 at (a, b) and 5-6 at (c). ANOVA on groups 1-4: F(3.63)=7.95, p<0.001 at (b); H=24.1, p<0.0001 at (c); F(3.44)=6.33, p<0.01 at (d). *p<0.05, **p<0.01, ***p<0.001 compared with group (Sc.Aβ+V); #p<0.05, ##p<0.01, ###p<0.001 compared with group (Aβ25-35+V); Dunnett test at (a, c) and Dunn at (b). The values of the groups 5-12 (screened compounds) were analysed by t-test at (a, c) or Mann-Whitney at (b).
From the molecules derived from the synthesis, a panel of 8 derivatives was selected and screened for potential neuroprotective efficacy. The compounds were injected at a dose of 0.3 mg/kg IP, i.e. the maximum non-active dose of 3b and compared with 3b injected at 0.3 and 0.7 mg/kg IP. The compounds were injected […] before the Aß25-35 peptide, and the mice were tested for spontaneous alternation on Day 7, passive avoidance on Days 8 and 9 and the ROS level was measured in the hippocampus (FIG. 7). For each response (spontaneous alternation: FIG. 7a; step-through latency in passive avoidance: FIG. 7b, and DCF fluorescence level: FIG. 7c), a 50% level of the effect between the values of the ScAß and Aß25-35 animals was taken as criterion of efficacy. […] Compound 3c is an isomer at the position of the chlorine atom of 3b. Regarding compound 3n, this has a 5-pyrimidyl group attached to the phosphorus atom, and for compound 3l it is a 4-pyridinyl group.

APPSwe mice = experiment: Spontaneous alternation in Y-maze, transgenic APPSwe mice, chronic treatment; assay type: in vivo; conditions: for alternation deficit of APPSwe animals: 1 mg/kg/d
Method: FIG. 8: Spontaneous alternation (a, b) and total number of arm entries (c, d) of APPSwe mice given compound 3b, in the Y-maze, after treatment of one month (a, c) and 2 months (b, d). The animals were given compound 3b (0.7 or 2 mg/kg IP) 3 times per week for 1 or 2 months. N=6-15 per group. ANOVA: F(5.49)=3.84, p<0.01 at (a); F(5.54)=1.54, p>0.05 at (b); F<1 at (c) et (d). *p<0.05, **p<0.01 compared with group (WT+V); #p<0.05 compared with group (APPSwe+V); Dunnett test at (a, b).
FIG. 10: Spontaneous alternation (a, b) and number of arm entries (c, d) for APPSwe mice treated with compound 3c, in the Y-maze, after treatment for 1 month (a, c) or 2 months (b, d). The animals were given compound 3c (1 mg/kg IP) 3 times per week for 1 or 2 months. N=10-13 per group. ANOVA: F(3.45)=3.61, p<0.05 at (a); F(3.38)=6.33, p<0.01 at (b); F<1 at (c) and (d). *p<0.05, ***p<0.001 compared with group WT/V; #p<0.05 compared with group APPSwe/V; Dunnett test at (a, b).
as §1
TG2576 mice, over-expressing the human amyloid precursor protein carrying the Swedish double mutation APPSwe, develop the pathology towards the age of 8-10 months and up until 15-17 months, age at which 95% of the animals show behavioural, biochemical and morphological signs of the disease. Compound 3b was administered under chronic treatment at doses of 0.7 mg/kg/d IP and then 2 mg/kg/d IP. The effect of compound 3c, at a dose of 1 mg/kg/j IP, was also documented.

Compound	active dose (neuroprotective effects) ([1]; IP) [mg/kg]	minimum active dose ([1]; dose-dependent experiments, Aβ25-35 model, IP) [mg/kg]	maximum non-active dose of 3b ([2]; IP) [mg/kg]	alternation in the WT animals (APPSwe mice; lowest dose (0.7 mg/kg/d), 2 months)	spontaneous alternation performance of wild-type control animals (APPSwe mice; treatment for one month, 0.7 or 2 mg/kg IP)	spontaneous alternation deficit induced by Aβ25-35 (Y-maze) ([1]; 0.3 mg/kg IP (range tested 0.03-0.7; only this dose efficient), Day 7)	criterion of efficacy: 50% level of the effect between ScAβ and Aβ25-35 animals (spontaneous alternation, step-through latency, DCF fluorescence) ([2]; 0.3 mg/kg IP)	efficacy compared with 3b ([2]; Aβ25-35 model)	efficiency in the screening of the molecules in the series ([2]; Aβ25-35 model)	alternation deficit of APPSwe animals (APPSwe mice; 1 month)	alternation deficit of APPSwe animals (APPSwe mice; 2 months)
CC1(C)COP(=O)(c2cccc(Cl)c2)C(C)(C)N1 (racemic) [Compound 3b, (±)-2-(3-Chlorophenyl)-2-oxo-3,3,5,5-tetramethyl-[1,4,2]-oxazaphosphinane]	0.7	0.7	0.3	appears to impact alternation	does not affect the performance	–	–	–	–	–	–
CC1(C)COP(=O)(c2ccc(Cl)cc2)C(C)(C)N1 (racemic) [Compound 3c, (±)-2-(4-Chlorophenyl)-2-oxo-3,3,5,5-tetramethyl-[1,4,2]-oxazaphosphinane]	0.3	–	–	–	–	significantly prevents spontaneous alternation deficit	met the criterion for the 3 parameters	as effective at 0.3 mg/kg IP as 3b at 0.7 mg/kg IP	highly efficient	attenuated	significantly blocked

Reference: patent US10947260B2, “Phosphinolactone derivatives and pharmaceutical uses thereof” (INSTITUT NATIONAL DE LA SANTE ET DE LA RECHERCHE MEDICALE …, priority 2016, dated 2021)
